From US20200390729A1, “OPHTHALMIC TOPICAL COMPOSITION COMPRISING DOBESILIC ACID FOR TREATING DISEASES OF THE POSTERIOR SEGMENT OF THE EYE” (LABORATORIOS SALVAT, S.A., priority 2017, published 2020)
Where two headings read alike, the source gives them in different places.

How the values were obtained:
[1] = Ocular tolerability of CDO in rats, clinical eye evaluation; type: in vivo, Diabetic SD male rats; details: CDO 100 mg/ml administered topically
Protocol: Diabetic SD male rats were treated with CDO compositions 2 and 5 of Example 1 for 28 days three times a day (topical instillation of 10 μl/eye). Clinical evaluation of the eye appearance was performed thorough the study.

[2] = Ocular distribution of CDO in rabbits, single dose topical ocular vs. oral; type: in vivo, New Zealand White rabbit; details: for concentration at 0.25 h / concentration at 1 h / concentration at 3 h / concentration at 6 h: New Zealand White
Protocol: In New Zealand White rabbit, weighing approximately 1.8 kg, CDO was administered by topical ocular instillation (33 μl/eye) at 10 mg/ml (composition 2 of Example 1), at 100 mg/ml (composition 5 of Example 1) or by oral gavage at 25 mg/kg in aqueous solution (from composition 1 of Example 1). At 15, 60, 180 and 360 minutes post-administration, animals were euthanized and plasma and ocular tissues including retina/choroid and optic nerve were collected.
Bioanalysis of CDO was performed depending on the type of matrix. In the case of plasma, proteins were precipitated using methanol. In the case of tissues, samples were grinded in a Mini Bead Beater using zirconium beads and methanol/water (1:1) (v/v) as solvent. After centrifugation, samples were analyzed by UPLC-MS/MS.
Chromatographic separation was carried out using an Acquity CSH Fluoro Phenyl column (1.7 μm, 50×2.1 mm). Mobile phase consisted of a gradient using 0.1% formic acid in water and acetonitrile from 5% to 45% in 4.5 min at a flow rate of 0.6 ml/min.
With regard to the mass spectrometric detection, the electrospray ionization source worked to record negative ions. Multiple Reaction Monitoring (MRM) acquisition mode of the deprotonated molecular ions was performed. The transition monitored for CDO was m/z 189.0→80.1 with a cone voltage of 45 V and collision energy of 25 eV.

[3] = system: diabetic rats induced by streptozotocin; experiment: Retinal vascularity (Evans Blue staining) in diabetic retinopathy model induced by streptozotocin; type: in vivo, SD male rats; details: diabetic rats (group III), CDO 10 mg/ml topical 10 μl/eye TID 28 days
Protocol: Diabetes was induced in SD male rats by single intraperitoneal injection of streptozotocin (STZ) at 60 mg/kg body weight in citrate buffer (pH 4.5). Seven days after STZ administration, blood glucose was measured and the level of 250 mg/dl was considered the threshold value to consider diabetes induction. Ophthalmic treatment with CDO at 10 mg/ml (topical instillation of 10 μl/eye) was initiated once hyperglycemia was confirmed and continued for 28 days three times a day (TID). Rats were randomly divided in 3 groups: I. Control (non-diabetic), II. Diabetic rats with no treatment and III. Diabetic rats with CDO at 10 mg/ml.
At day 29 CDO was instilled a single time at 10 mg/ml in the group III, rats were euthanized and retinas were collected 15 minutes post-administration.
Retinal vascularity was observed by Evans Blue (EB) staining, based on the ability of EB to bind serum albumin immediately after intravenous injection. Thus Evans Blue 3% was injected through the tail vein at 1 ml/kg at 60 minutes before euthanasia at day 29. Eyeballs were fixed in paraformaldehyde 4%. Retinas were immediately after dissected and mounted in slides and observed by fluorescence microscopy.

[4] = system: egg chorioallantoic membrane (CAM); experiment: Ocular irritation assay (HET-CAM); set-up: species or system White Leghorn chicken eggs; details: 100 mg/ml, CAM observed for 5 minutes
From the text: The HET-CAM is an alternative method to the Draize Rabbit Eye Test which mimics vascular changes in the chorioallantoic membrane, an analog for ocular conjunctiva, which can be used to determine the potential irritancy of a test substance. This method is based on that described in Hen's Egg Test-Chorioallantoic Membrane (HET-CAM) Test Method (ICCVAM-Recommended Test Method Protocol, NIH Publication No. 10-7553—Published 2010)
Fertilized white SPF (special pathogen free) White Leghorn chicken eggs were incubated at 37° C. and 60% humidity up to day 10. After determination of the viability of the embryo, a rectangular window was removed from the shell directly over the air cell and the egg membrane was carefully moistened with 2-3 ml 0.9% saline. After returning to the incubator for 30 minutes, the inner membrane was removed and the test substance was applied to the CAM membrane with a pipette. Eggs were observed continuously for 5 minutes for the appearance of lysis, hemorrhage and/or coagulation and an irritation score (IS) was determined following the ICCVAM-Recommended Test Method Protocol (NIH Publication No. 10-7553-Published 2010) guideline.

[5] = Ocular distribution of CDO following 28-day topical ocular repeated dose in diabetic rats; type: in vivo; details: rat, retina, day 29, 0.25 h after single instillation, read-out: CDO μg/g tissue Retina
Protocol: 28-day repeated dose study in the diabetic rats was performed to assess CDO levels in retina at the steady state. CDO compositions 2 and 5 of Example 1 were administered by topical ocular instillation (10 μl/eye) TID for 28 days. At day 29 CDO was instilled a single time and retinas were collected 15 minutes post-administration.
As described in Example 2.

[6] = optic nerve, rabbit, Oral 25 mg/Kg = 45 mg, read-out: CDO μg/g tissue Optic nerve
[7] = optic nerve, rabbit, Topical eye administration 10 mg/ml = 0.3 mg, read-out: CDO μg/g tissue Optic nerve
[8] = optic nerve, rabbit, Topical eye administration 100 mg/ml = 3.3 mg, read-out: CDO μg/g tissue Optic nerve
[9] = retina/choroid, rabbit, Oral 25 mg/Kg = 45 mg, read-out: CDO μg/g tissue Retina/Choroid
[10] = retina/choroid, rabbit, Topical eye administration 10 mg/ml = 0.3 mg, read-out: CDO μg/g tissue Retina/Choroid
[11] = retina/choroid, rabbit, Topical eye administration 100 mg/ml = 3.3 mg, read-out: CDO μg/g tissue Retina/Choroid

O=S(=O)(O)c1cc(O)ccc1O [CDO, Calcium dobesilate monohydrate]
tolerance after topical administration [1]: good tolerance
concentration at 0.25 h [2, 6]: 0.74 µg/g
concentration at 1 h [2, 6]: 1.61 µg/g
concentration at 3 h [2, 6]: 0.49 µg/g
concentration at 6 h [2, 6]: 0.1 µg/g
concentration at 0.25 h [2, 7]: 0.23 µg/g
concentration at 1 h [2, 7]: 0.76 µg/g
concentration at 3 h [2, 7]: 0.65 µg/g
concentration at 6 h [2, 7]: 0.45 µg/g
concentration at 0.25 h [2, 8]: 14.4 µg/g
concentration at 1 h [2, 8]: 22.9 µg/g
concentration at 3 h [2, 8]: 4.5 µg/g
concentration at 6 h [2, 8]: 1.92 µg/g
concentration at 0.25 h [2, 9]: 0.43 µg/g
concentration at 1 h [2, 9]: 0.95 µg/g
concentration at 3 h [2, 9]: 0.28 µg/g
concentration at 6 h [2, 9]: 0.12 µg/g
concentration at 0.25 h [2, 10]: 0.27 µg/g
concentration at 1 h [2, 10]: 0.29 µg/g
concentration at 3 h [2, 10]: 0.16 µg/g
concentration at 6 h [2, 10]: 0.11 µg/g
concentration at 0.25 h [2, 11]: 7.88 µg/g
concentration at 1 h [2, 11]: 6.41 µg/g
concentration at 3 h [2, 11]: 3.47 µg/g
concentration at 6 h [2, 11]: 1.14 µg/g
CDO amounts in target tissues (optic nerve and retina choroids) 6 hours after topical ocular administration ([2]; rabbit, 6 hours after topical ocular administration): could be detected
values of CDO in target tissues, topical vs. single oral dose ([2]; rabbits, topical eye single low dose 0.3 mg vs oral 45 mg): equivalent to those of a single oral dose (45 mg)
levels of the drug in target tissues, topical vs. single oral dose ([2]; rabbits, topical single dose CDO 3.3 mg vs single oral dose): higher levels of the drug are detected than those obtained following a single oral dose
Retinal vascularity (fluorescence microscopy, Evans Blue) [3]: well preserved retinas, with well-defined vessels with no evidence of vascular damages
HET-CAM irritation characterization [4]: not irritating
HET-CAM lysis, haemorrhage or coagulation processes [4]: did not trigger any lysis, haemorrhage or coagulation processes
concentration at 0.25 h ([5]; 0.1 mg/eye, topical eye 28 days (3 administrations/day, 10 μl/eye) 10 mg/ml): 19.5 µg/g
concentration at 0.25 h ([5]; 1 mg/eye, topical eye 28 days (3 administrations/day, 10 μl/eye) 100 mg/ml): 218 µg/g
